The source of these data is EP0417165B1, “POLYPEPTIDE COMPOUNDS HAVING GROWTH HORMONE RELEASING ACTIVITY” (POLYGEN HOLDING CORPORATION, priority 1988, dated 1994).

Molecules are shown by their SMILES. Non-standard residues stand in square brackets, D forms with d. Residues, ends and D or L forms follow the SMILES beside them.

The subject of this assay is GH Release. Put plainly: In vivo GH release in pentobarbital anesthetized rats (serum GH by RIA). The arrangement: species or system Sprague-Pawley rats. The note with it: sacrificed 10 minutes after injection, mean ± SEM, six rats. The procedure: Immature female Sprague-Pawley rats were obtained from the Charles River Laboratories (Wilmington, MA). After arrival they were housed at 25° C with a 14:10 hr light:dark cycle. Water and Purina rat chow were available ad libitum. Pups were kept with their mothers until 21 days of age.
Normal saline with 0.1% gelatin was the vehicle for intravenous (i.v.) injections of the peptides. The anesthetized rats, weighing 55-65 grams, were injected i.v. with the quantity of growth hormone releasing compounds indicated in Table 3. Injection was made as a 0.1 mL solution into the jugular vein.
All animals were sacrificed by guillotine 10 minutes after the final test injection (see Table 3). Trunk blood for the determination of blood GH levels was collected following decapitation. After allowing the blood to clot, it was centrifuged and the serum was separated from the clot. Serum was kept frozen until the day of sampling for radioimmunoassay (RIA) determination of growth hormone levels according to the following procedure, as developed by the National Institute of Arthritis, Diabetes and Digestive and Kidney Diseases (NIADDK).
Reagents are generally added to the RIA analysis tubes at a single sitting, at refrigerator temperature (about 4°C) in the following sequence: • (a) buffer, • (b) "cold" (i.e., non-radioactive) standard or unknown serum sample to be analyzed, • (c) radio-iodinated growth hormone antigen, and • (d) growth hormone antiserum. Reagent addition is generally carried out so that there is achieved a final RIA tube dilution of about 1:30,000 (antiserum to total liquid volume; vol:vol).
The mixed reagents are then typically incubated at room temperature (about 25°C) for about 24 hours prior to addition of a second antibody (e.g., goat or rabbit anti-monkey gamma globulin serum) which binds to and causes precipitation of the complexed growth hormone antiserum. Precipitated contents of the RIA tubes are then analyzed for the number of counts in a specified period of time in a gamma scintillation counter. A standard curve is prepared by plotting number of radioactive counts versus growth hormone (GH) level. GH levels of unknowns are then determined by reference to the standard curve.
Serum GH was measured by RIA with reagents provided by the National Hormone and Pituitary Program.
Serum levels in Table 3 are recorded in ng/mL in terms of the rat GH standard of 0.61 International Units/mg (IU/mg). Data is recorded as the mean +/-standard error of the mean (SEM). Statistical analysis was performed with Student's t-test. In Table 3 the results shown are the average of studies with six rats.

Where [1] appears, read: Total Dose 0.3 µg i.v., 26 day old female rats, study with Control GH 142±43.
Where [2] appears, read: Total Dose 0.3 µg i.v., 26 day old female rats, study with Control GH 208±47.
Where [3] appears, read: Total Dose 1.0 µg i.v., 26 day old female rats, study with Control GH 142±43.
The mark [4] stands for this setting: Total Dose 1.0 µg i.v., 26 day old female rats, study with Control GH 208±47.
Setting [5] is: Total Dose 1.0 µg i.v., 29 day old female rats, study with Control GH 108±17.
Setting [6] is: Total Dose 3.0 µg i.v., 26 day old female rats, study with Control GH 142±43.
[7] abbreviates: Total Dose 3.0 µg i.v., 26 day old female rats, study with Control GH 208±47.
[8] abbreviates: Total Dose 3.0 µg i.v., 29 day old female rats, study with Control GH 108±17.

As to `C[C@H](NC(=O)[C@@H](N)Cc1c[nH]cn1)C(=O)N[C@H](Cc1c[nH]c2ccccc12)C(=O)N[C@@H](C)C(=O)N[C@@H](Cc1c[nH]c2ccccc12)C(=O)N[C@H](Cc1ccccc1)C(=O)N[C@@H](CCCCN)C(N)=O` [His-Ala-DTrp-Ala-Trp-DPhe-Lys-NH₂] (H-HA[dW]AW[dF]K-NH2), the “GH Released by Compound in Column A” value by setting is: (Total Dose 0.3 µg i.v., 26 day old female rats, study with Control GH 151±16) 261 ± 32 ng/mL; (Total Dose 1.0 µg i.v., 26 day old female rats, study with Control GH 151±16) 830 ± 103 ng/mL; (Total Dose 3.0 µg i.v., 26 day old female rats, study with Control GH 111±25) 2588 ± 341 ng/mL; (Total Dose 3.0 µg i.v., 26 day old female rats, study with Control GH 151±16) 2365 ± 478 ng/mL.
`C[C@H](N)C(=O)N[C@H](Cc1c[nH]c2ccccc12)C(=O)N[C@@H](C)C(=O)N[C@@H](Cc1c[nH]c2ccccc12)C(=O)N[C@H](Cc1ccccc1)C(=O)N[C@@H](CCCCN)C(N)=O` [Ala-DTrp-Ala-Trp-DPhe-Lys-NH₂] (H-A[dW]AW[dF]K-NH2): the “GH Released by Compound in Column A” value reads like this: under setting [1], 303 ± 41 ng/mL; under setting [2], 265 ± 96 ng/mL; under setting [3], 729 ± 115 ng/mL; under setting [4], 754 ± 164 ng/mL; under setting [5], 745 ± 68 ng/mL; under setting [6], 1164 ± 215 ng/mL. For the same compound, the “GH Released by Compound in Column A” value reads like this: under setting [7], 1449 ± 238 ng/mL; under setting [8], 1673 ± 352 ng/mL; (Total Dose 10.0 µg i.v., 26 day old female rats, study with Control GH 142±43) 2353 ± 149 ng/mL; (Total Dose 10.0 µg i.v., 29 day old female rats, study with Control GH 108±17) 2388 ± 269 ng/mL; (Total Dose 30.0 µg i.v., 26 day old female rats, study with Control GH 142±43) 2484 ± 110 ng/mL.
Take `C[C@H](NC(=O)[C@@H](Cc1c[nH]c2ccccc12)NC(=O)[C@@H](N)Cc1c[nH]cn1)C(=O)N[C@@H](Cc1c[nH]c2ccccc12)C(=O)N[C@H](Cc1ccccc1)C(=O)N[C@@H](CCCCN)C(N)=O` [His-DTrp-Ala-Trp-DPhe-Lys-NH₂] (H-H[dW]AW[dF]K-NH2): the “GH Released by Compound in Column A” value runs as follows: under setting [1], 533 ± 77 ng/mL; under setting [2], 660 ± 128 ng/mL; (Total Dose 0.3 µg i.v., 29 day old female rats, study with Control GH 108±17) 764 ± 62 ng/mL; under setting [3], 1656 ± 213 ng/mL; under setting [4], 1669 ± 257 ng/mL; under setting [5], 2614 ± 349 ng/mL. Further, the “GH Released by Compound in Column A” value is, setting by setting: under setting [6], 2653 ± 378 ng/mL; under setting [7], 3078 ± 629 ng/mL; under setting [8], 3215 ± 547 ng/mL.
